Data: US20130183237A1 (priority 2007, published 2013)

Molecular target: thrombin (Homo sapiens, UniProt P00734)
Conditions: fibrinogen 3 mg/ml, thrombin 20 nM, 37° C., no pre-incubation, dose-dependent
Description: 200 μl of fibrinogen (final concentration 3 mg/ml) were incubated with 100 μl of peptides (various concentrations) at 37° C. Clotting of fibrinogen was initiated by the addition of 100 μl of thrombin (final concentration 20 nM). All reagents and samples were dissolved in 50 mM Tris buffer (pH 7.4) containing 100 mM NaCl.

APPFDFEAIPEEYLDDES [AP18]
fibrinogen clotting time: prolonged
